The target in this test is T1, mouse NPY5-receptor (mNPY5) (Mus musculus, UniProt O70342).
T1 construct: The full-length cDNA encoding the mouse NPY5 (mNPY5) receptor was amplified from mouse brain cDNA; expressed in transfected cells; membranes used
T1 sequence (O70342 1-466): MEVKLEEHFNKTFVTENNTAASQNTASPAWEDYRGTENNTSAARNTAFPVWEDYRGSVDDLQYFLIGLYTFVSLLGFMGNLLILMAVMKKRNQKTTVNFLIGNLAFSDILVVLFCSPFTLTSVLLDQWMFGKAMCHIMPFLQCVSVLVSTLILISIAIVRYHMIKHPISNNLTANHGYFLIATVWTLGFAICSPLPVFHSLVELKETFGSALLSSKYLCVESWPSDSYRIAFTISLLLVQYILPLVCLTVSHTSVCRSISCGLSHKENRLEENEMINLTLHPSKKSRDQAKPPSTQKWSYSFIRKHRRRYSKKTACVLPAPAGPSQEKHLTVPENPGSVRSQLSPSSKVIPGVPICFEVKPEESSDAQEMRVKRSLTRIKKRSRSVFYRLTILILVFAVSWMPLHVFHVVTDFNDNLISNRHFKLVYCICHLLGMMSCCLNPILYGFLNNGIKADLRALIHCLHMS
Briefly: Radioligand competition binding. As to conditions: membranes of HEK293 cells expressing recombinant mNPY5; 100 pM [125I]labelled peptide YY; 1 h at 22° C. From the text:
Cloning of Mouse NPY5 Receptor cDNAs:
The full-length cDNA encoding the mouse NPY5 (mNPY5) receptor was amplified from mouse brain cDNA using specific primers, designed based on the published sequence, and Pfu DNA-Polymerase. The amplification product was subcloned into the mammalian expression vector pcDNA3 using EcoRI and XhoI restriction sites. Positive clones were sequenced and one clone, encoding the published sequence (see Borowsky, B., et al., Molecular biology and pharmacology of multiple NPY Y5 receptor species homologs, Regul. Pept. (1998) 75-76:45-53) was selected for generation of stable cell clones.
Human embryonic kidney 293 (HEK293) cells were transfected with 10 μg mNPY5 DNA using the lipofectamine reagent (Gibco BRL) according to the manufacturer's instruction. Two days after transfection, geneticin selection (1 mg/ml) was initiated and several stable clones were isolated. One clone was further used for pharmacological characterization.
Radioligand Competition Binding:
Human embryonic kidney 293 cells (HEK293), expressing recombinant mouse NPY5-receptor (mNPY5) were broken by three freeze/thawing cycles in hypotonic Tris buffer (5 mM, pH 7.4, 1 mM MgCl2), homogenized and centrifuged at 72,000×g for 15 min. […] Protein was determined according to the method of Lowry using bovine serum albumine (BSA) as a standard. […]

On to `O=C(c1ccccn1)c1cnc(NCCCNS(=O)(=O)c2ccccc2F)s1` [Example 1, 2-Fluoro-N-{3-[5-(pyridine-2-carbonyl)-thiazol-2-ylamino]-propyl}-benzenesulfonamide], for which the IC50 is 5.4 nM. Turning to `COc1ccc(C)cc1S(=O)(=O)NCCCNc1nc(C(=O)c2ccccc2C)cs1` [Example 140, 2-Methoxy-5-methyl-N-{3-[4-(2-methyl-benzoyl)-thiazol-2-ylamino]-propyl}-benzenesulfonamide], the IC50 turned out to be 6 nM.

What is called IC50 is the midpoint of a concentration-inhibition curve.

Source of the values: US6686381B2, “Thiazole derivatives” (Hoffmann-La Roche Inc., priority 2002, dated 2004).
